Results: patent US11413278B2, “Compounds and methods for promoting stress resistance” (priority 2015, dated 2022)
Entries after “also recorded” stand apart in the source; their conditions may differ.

How the values were obtained:
human PARP1 = target: T1, human PARP1 (Homo sapiens, UniProt P09874); assay: PARP inhibitor assay (HT Fluorescent Homogeneous PARP Inhibition Assay Kit); format: biochemical; details: score
T1 construct: purchased Trevigen
In short: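 Compounds (10 μM final) incubated 30 min, room temperature, dark, with human PARP1, nicotinamide adenine dinucleotide and activated DNA. Fluorescent signal generated by 1 hr cycling with diaphorase and resazurin, then reaction stopped.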

FOXO3 = assay: qPCR analysis of FOXO3-regulated genes; format: cell-based, human
In short: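 FOXO3 target-gene expression quantified by qPCR normalised to B2M, PPIA and GAPDH, in WI-38 cells after 24 h exposure to 10 μM compound. Some runs used cells first transfected 36 h with 10 nM FOXO3 or NRF2 siRNA and replated ~24 h before dosing.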

NRF2 = assay: qPCR analysis of NRF2-regulated genes; format: cell-based, human
In short: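 Expression of HMOX1, NQO1, GCLC and GSTM1 measured by qPCR relative to B2M, PPIA and GAPDH. Cells were WI-38 fibroblasts exposed 24 hrs to 10 μM compound, with RNA and cDNA prepared via Cells-to-Ct. Where stated, cells were first transfected 36 hrs with FOXO3 or NRF2 siRNA at 10 nM.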

C. elegans = C. elegans lifespan assays (liquid and plate); format: in vivo, Caenorhabditis elegans; details: for Lifespan assay in liquid / Lifespan assay on plates: at 66 uM; for Lifespan assay on plates: CF512 worms, no FuDR
WI-38 cells = system: WI-38 cells
Protocol: WI-38 cells were seeded on 384-well plates for 24 hrs and then incubated with small molecules for 24 hrs. […] Images were collected on an INCell Analyzer 2000 (GE) and analyzed with the Developer software.

[1] = 10 μM, 24 hrs, WI-38 cells, qPCR, normalized to B2M, n = 4
[2] = WI-38 cells, 10 μM, 24 hrs, n=4, qPCR normalized by B2M
[3] = fold change, qPCR, WI-38 cells, 10 μM, 24 hrs
[4] = qPCR, WI-38 cells, 10 μM, n=4, 24 hrs, normalized by B2M
[5] = rounded fold change, WI-38 cells, 10 μM, 24 hrs (RP29 for Gr-4D)

T1 sequence (P09874 whole entry): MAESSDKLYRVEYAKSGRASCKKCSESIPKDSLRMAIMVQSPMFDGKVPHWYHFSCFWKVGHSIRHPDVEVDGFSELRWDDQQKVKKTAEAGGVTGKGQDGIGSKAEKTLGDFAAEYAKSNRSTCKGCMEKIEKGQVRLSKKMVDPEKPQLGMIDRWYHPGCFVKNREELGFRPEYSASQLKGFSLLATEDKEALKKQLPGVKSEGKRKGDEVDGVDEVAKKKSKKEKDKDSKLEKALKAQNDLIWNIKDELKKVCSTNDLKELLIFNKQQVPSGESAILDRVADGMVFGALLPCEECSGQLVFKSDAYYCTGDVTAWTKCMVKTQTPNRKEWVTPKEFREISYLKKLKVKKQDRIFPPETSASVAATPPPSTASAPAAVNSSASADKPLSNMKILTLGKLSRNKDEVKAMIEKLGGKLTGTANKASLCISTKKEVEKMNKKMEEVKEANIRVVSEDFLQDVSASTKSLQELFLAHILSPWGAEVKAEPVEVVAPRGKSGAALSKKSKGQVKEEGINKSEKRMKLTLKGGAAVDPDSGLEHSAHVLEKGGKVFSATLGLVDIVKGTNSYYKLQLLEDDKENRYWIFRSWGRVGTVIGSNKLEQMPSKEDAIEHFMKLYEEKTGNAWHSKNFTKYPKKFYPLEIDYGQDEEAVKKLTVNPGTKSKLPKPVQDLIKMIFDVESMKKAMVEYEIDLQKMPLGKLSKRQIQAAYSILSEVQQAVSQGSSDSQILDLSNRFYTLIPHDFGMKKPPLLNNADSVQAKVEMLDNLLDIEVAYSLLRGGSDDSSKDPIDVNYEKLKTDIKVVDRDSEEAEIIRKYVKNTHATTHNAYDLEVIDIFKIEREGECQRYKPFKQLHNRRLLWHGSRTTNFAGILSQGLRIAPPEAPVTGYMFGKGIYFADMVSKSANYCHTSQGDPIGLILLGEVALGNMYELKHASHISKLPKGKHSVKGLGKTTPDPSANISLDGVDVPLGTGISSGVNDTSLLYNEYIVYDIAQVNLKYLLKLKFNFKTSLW

In the case of COc1cc2c(no[n+]2[O-])n2nnnc12 [O11], the “L = PARP inhibition” value (human PARP1) is reported as 0, the “Induction of at least two of five FOXO3-regulated genes (SOD2, GADD45A, CAT, DDB1, TXNIP)” value (FOXO3; 10 μM, 24 hrs, WI-38) is reported as “significant induction; also recorded: significant, induction; also recorded: induce FOXO3-regulated genes” and the “CAT expression, normalized fold change (FOXO3-regulated gene)” value (FOXO3; [1]) is reported as “CAT 1.41, fold”. The “DDB1 expression, normalized fold change (FOXO3-regulated gene)” value (FOXO3; [1]) was “DDB1 1.31, fold”, the “SESN1 expression, normalized fold change (FOXO3-regulated gene)” value (FOXO3; [1]) was “SESN1 1.77, fold” and the “TXNIP expression, normalized fold change (FOXO3-regulated gene)” value (FOXO3; [1]) was “TXNIP 1.35, fold”. For the same compound, the “E = Potential FOXO3 Activation” value (FOXO3; 2-point score) was 0, the “Induction of FOXO3-regulated genes: CAT normalized fold-change” value (FOXO3; Assay 10(m), at 10 uM, qPCR) was “CAT 1.41, fold-change” and the “Induction of FOXO3-regulated genes: DDB1 normalized fold-change” value (FOXO3; Assay 10(m), at 10 uM, qPCR) was “DDB1 1.31, fold-change”. For the same compound, the “Induction of FOXO3-regulated genes: SESN1 normalized fold-change” value (FOXO3; Assay 10(m), at 10 uM, qPCR) was “SESN1 1.77, fold-change”, the “Induction of FOXO3-regulated genes: TXNIP normalized fold-change” value (FOXO3; Assay 10(m), at 10 uM, qPCR) was “TXNIP 1.35, fold-change” and the “DDB1 Normalized fold change” value (FOXO3; [2]) was 1.308 fold change. For the same compound, the “GADD45A Normalized fold change” value (FOXO3; [2]) was 1.431 fold change, the “SESN1 Normalized fold change” value (FOXO3; [2]) was 1.773 fold change and the “Summary of effects on FOXO3-regulated genes: CAT” value (FOXO3; [3]) was “CAT 1.41,”. The “Summary of effects on FOXO3-regulated genes: DDB1” value (FOXO3; [3]) was “DDB1 1.31,”, the “Summary of effects on FOXO3-regulated genes: SESN1” value (FOXO3; [3]) was “SESN1 1.77,” and the “Summary of effects on FOXO3-regulated genes: TXNIP” value (FOXO3; [3]) was “TXNIP 1.35,”. The “CAT Normalized fold change” value (FOXO3; [4]) was 1.410, the “SOD2 Normalized fold change” value (FOXO3; [4]) was 1.143 and the “TXNIP Normalized fold change” value (FOXO3; [4]) was 1.346. For the same compound, the “K = Sestrin induction” value (FOXO3; score) was 1, the “E = Potential FOXO3 Activation” value (FOXO3; summary score) was 0 and the “Induction of at least two NRF2-regulated genes (HMOX1, NQO1, GCLC, GSTM1)” value (NRF2; 10 μM, 24 hrs, WI-38) was “could induce expression of at least two genes”. For the same compound, the “GSTM1 expression, normalized fold change (NRF2-regulated gene)” value (NRF2; [1]) was “GSTM1 1.30, fold”, the “NQO1 expression, normalized fold change (NRF2-regulated gene)” value (NRF2; [1]) was “NQO1 2.03, fold” and the “F = Potential NRF2 Activation” value (NRF2; 2-point score) was 0. For the same compound, the “Induction of NRF2-regulated genes: GSTM1 normalized fold-change” value (NRF2; Assay 12(o), at 10 uM, qPCR) was “GSTM1 1.30, fold-change”, the “Induction of NRF2-regulated genes: NQO1 normalized fold-change” value (NRF2; Assay 12(o), at 10 uM, qPCR) was “NQO1 2.03, fold-change” and the “GCLC Normalized fold change” value (NRF2; [2]) was 1.333 fold change. The “GSTM1 Normalized fold change” value (NRF2; [2]) was 1.304 fold change, the “HMOX1 Normalized fold change” value (NRF2; [2]) was 1.069 fold change and the “NQO1 Normalized fold change” value (NRF2; [2]) was 2.027 fold change. For the same compound, the “Summary of effects on NRF2-regulated genes: GSTM1” value (NRF2; [5]) was 1.30,, the “Summary of effects on NRF2-regulated genes: NQO1” value (NRF2; [5]) was 2.03, and the “F = Potential NRF2 Activation” value (NRF2; summary score) was 0. For the same compound, the “relative change of mean lifespan vs control, Trial 1” value (C. elegans; 60 μM, in liquid, wild type, with FuDR, 1.0 × 10^9 bacteria/ml) was “+14.9%”, the “relative change of mean lifespan vs control, Trial 2” value (C. elegans; 60 μM, in liquid, wild type, with FuDR, 2.5 × 10^9 bacteria/ml) was “+6.0%” and the “relative change of mean lifespan vs control, Trial 4” value (C. elegans; 60 μM, on plate, CF512 temperature-sensitive sterile animals, without FuDR, 1.0 × 10^11 bacteria/ml) was “+9.0%”. The “relative change of mean lifespan vs control, Trial 3” value (C. elegans; 60 μM, on plate, CF512 temperature-sensitive sterile animals, without FuDR, 2.0 × 10^10 bacteria/ml) was “+21.0%”, the “Lifespan assay in liquid” value (C. elegans; Assay 2(z), 1.0 × 10^9 bacteria/ml, wild type + FuDR (2012 July)) was “+14.9%” and the “Lifespan assay in liquid” value (C. elegans; Assay 3(aa), 2.5 × 10^9 bacteria/ml, wild type + FuDR) was “+6.0%”. The “Lifespan assay on plates” value (C. elegans; Assay 4(ab), 2.0 × 10^10 bacteria/ml) was “+21.0%”, the “Lifespan assay on plates” value (C. elegans; Assay 5(ac), 1.0 × 10^11 bacteria/ml) was “+9.0%” and the “O = Life span- extending scores in worms” value (C. elegans; score scale 0 to 2, 4 to 6 independent trials) was 1 (1 for lifespan extension observed in 2 trials). For the same compound, the “M = Lifespan-extending scores in worms” value (C. elegans; summary score) was 1 (1 for lifespan extension observed in 2 trials), the “PI cell-death imaging without H2O2 (indicating potential toxicity)” value (WI-38 cells) was “YES” and the “PI-positive dead cells under normal conditions” value (WI-38 cells; human) was 1.9%±0.7%. The “Percentage of propidium iodide-positive dead cells (no H2O2 stress treatment), at 10 uM” value (WI-38 cells; human) was 1.86% ± 0.71%,.
